According to patent US20250163054A1, “SUBSTITUTED BICYCLIC HETEROARYL COMPOUNDS USEFUL AS INHIBITORS OF TLR9” (Bristol-Myers Squibb Company, priority 2022, published 2025):
pIC50: −log10 of the molar value.

How the values were obtained:
Type in all cases: cell-based
human TLR9 = molecular target: T1, human TLR9 (Homo sapiens, UniProt Q9NR96); experiment: TLR7/8/9 Inhibition Reporter Assays (TLR9); settings: HEK-Blue cells overexpressing human TLR9, SEAP reporter, stimulated with TLR9 ligand ODN2006
T1 construct: host or cells: HEK-Blue cells (HEK293-derived reporter line)
T1 sequence (Q9NR96 26-1032): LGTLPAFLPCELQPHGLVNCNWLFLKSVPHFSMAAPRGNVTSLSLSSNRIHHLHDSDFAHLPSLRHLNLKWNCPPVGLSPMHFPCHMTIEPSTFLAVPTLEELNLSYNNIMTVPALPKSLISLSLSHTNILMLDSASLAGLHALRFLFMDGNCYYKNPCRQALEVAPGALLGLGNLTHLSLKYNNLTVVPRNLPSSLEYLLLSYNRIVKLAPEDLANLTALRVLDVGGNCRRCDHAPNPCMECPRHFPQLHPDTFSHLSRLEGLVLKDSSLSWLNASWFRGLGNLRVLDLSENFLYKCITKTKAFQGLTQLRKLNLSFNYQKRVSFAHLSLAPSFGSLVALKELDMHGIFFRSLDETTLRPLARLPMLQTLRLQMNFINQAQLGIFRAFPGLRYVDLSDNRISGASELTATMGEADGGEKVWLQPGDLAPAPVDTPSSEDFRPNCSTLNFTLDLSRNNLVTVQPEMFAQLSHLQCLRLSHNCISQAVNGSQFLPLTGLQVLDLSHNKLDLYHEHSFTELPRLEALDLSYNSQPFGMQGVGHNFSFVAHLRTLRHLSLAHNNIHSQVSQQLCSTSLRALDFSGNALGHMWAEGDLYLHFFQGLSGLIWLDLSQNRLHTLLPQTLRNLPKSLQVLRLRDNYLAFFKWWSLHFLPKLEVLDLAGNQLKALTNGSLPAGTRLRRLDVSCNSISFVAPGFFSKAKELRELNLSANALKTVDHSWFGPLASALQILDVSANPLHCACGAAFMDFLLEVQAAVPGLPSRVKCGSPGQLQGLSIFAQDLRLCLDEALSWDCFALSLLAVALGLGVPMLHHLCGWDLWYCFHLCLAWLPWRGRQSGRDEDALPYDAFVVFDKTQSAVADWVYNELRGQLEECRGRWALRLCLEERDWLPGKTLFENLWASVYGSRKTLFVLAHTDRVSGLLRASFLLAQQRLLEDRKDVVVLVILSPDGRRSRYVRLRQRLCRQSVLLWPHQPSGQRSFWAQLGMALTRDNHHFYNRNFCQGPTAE
Summary of the method: (§1)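 HEK-Blue cells overexpressing human TLR7, TLR8 or TLR9 with NF-κB/AP-1-driven SEAP reporter, pre-treated 60 min with compound ([…]). Stimulated with […] (TLR7), […] (TLR8) or ODN2006 200 nM (TLR9), then 22 h at 37° C; SEAP measured, % inhibition relative to agonist-plus-DMSO and known-inhibitor wells.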

human TLR7 = molecular target: T2, human TLR7 (Homo sapiens, UniProt Q9NYK1); experiment: TLR7/8/9 Inhibition Reporter Assays (TLR7); settings: HEK-Blue cells overexpressing human TLR7, SEAP reporter, stimulated with TLR7 ligand gardiquimod
T2 construct: host or cells: HEK-Blue cells (HEK293-derived reporter line)
T2 sequence (Q9NYK1 27-1049): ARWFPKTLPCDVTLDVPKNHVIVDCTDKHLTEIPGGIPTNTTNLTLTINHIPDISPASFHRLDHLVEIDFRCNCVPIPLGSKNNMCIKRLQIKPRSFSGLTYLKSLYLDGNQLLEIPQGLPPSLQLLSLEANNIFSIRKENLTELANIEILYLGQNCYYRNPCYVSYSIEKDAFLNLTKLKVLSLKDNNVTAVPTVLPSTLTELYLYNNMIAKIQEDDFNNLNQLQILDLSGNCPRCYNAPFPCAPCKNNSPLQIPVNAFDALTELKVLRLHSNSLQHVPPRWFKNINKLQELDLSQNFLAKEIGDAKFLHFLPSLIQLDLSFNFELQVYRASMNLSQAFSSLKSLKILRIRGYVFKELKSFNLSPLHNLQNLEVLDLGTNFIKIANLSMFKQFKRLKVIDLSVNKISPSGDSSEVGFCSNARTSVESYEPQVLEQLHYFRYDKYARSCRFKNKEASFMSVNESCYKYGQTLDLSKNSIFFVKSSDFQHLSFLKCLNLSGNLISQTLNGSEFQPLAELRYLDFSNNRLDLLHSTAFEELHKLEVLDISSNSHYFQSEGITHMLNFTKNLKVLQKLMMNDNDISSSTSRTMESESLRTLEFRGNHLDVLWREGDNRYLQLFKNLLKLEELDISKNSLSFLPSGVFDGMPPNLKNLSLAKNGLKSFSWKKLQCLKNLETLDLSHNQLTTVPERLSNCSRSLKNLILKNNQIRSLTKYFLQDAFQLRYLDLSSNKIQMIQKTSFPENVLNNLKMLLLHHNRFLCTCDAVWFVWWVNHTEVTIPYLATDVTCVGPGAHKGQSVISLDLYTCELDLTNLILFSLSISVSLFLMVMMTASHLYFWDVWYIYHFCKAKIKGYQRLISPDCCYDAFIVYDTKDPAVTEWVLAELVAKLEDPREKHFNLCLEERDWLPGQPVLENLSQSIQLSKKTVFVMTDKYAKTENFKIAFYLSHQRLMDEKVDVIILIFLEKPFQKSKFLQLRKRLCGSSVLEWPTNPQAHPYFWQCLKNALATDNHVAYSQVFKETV
Summary of the method: as §1

human TLR8 = molecular target: T3, human TLR8 (Homo sapiens, UniProt Q9NR97); experiment: TLR7/8/9 Inhibition Reporter Assays (TLR8); settings: HEK-Blue cells overexpressing human TLR8, SEAP reporter, stimulated with TLR8 ligand R848
T3 construct: host or cells: HEK-Blue cells (HEK293-derived reporter line)
T3 sequence (Q9NR97 27-1041): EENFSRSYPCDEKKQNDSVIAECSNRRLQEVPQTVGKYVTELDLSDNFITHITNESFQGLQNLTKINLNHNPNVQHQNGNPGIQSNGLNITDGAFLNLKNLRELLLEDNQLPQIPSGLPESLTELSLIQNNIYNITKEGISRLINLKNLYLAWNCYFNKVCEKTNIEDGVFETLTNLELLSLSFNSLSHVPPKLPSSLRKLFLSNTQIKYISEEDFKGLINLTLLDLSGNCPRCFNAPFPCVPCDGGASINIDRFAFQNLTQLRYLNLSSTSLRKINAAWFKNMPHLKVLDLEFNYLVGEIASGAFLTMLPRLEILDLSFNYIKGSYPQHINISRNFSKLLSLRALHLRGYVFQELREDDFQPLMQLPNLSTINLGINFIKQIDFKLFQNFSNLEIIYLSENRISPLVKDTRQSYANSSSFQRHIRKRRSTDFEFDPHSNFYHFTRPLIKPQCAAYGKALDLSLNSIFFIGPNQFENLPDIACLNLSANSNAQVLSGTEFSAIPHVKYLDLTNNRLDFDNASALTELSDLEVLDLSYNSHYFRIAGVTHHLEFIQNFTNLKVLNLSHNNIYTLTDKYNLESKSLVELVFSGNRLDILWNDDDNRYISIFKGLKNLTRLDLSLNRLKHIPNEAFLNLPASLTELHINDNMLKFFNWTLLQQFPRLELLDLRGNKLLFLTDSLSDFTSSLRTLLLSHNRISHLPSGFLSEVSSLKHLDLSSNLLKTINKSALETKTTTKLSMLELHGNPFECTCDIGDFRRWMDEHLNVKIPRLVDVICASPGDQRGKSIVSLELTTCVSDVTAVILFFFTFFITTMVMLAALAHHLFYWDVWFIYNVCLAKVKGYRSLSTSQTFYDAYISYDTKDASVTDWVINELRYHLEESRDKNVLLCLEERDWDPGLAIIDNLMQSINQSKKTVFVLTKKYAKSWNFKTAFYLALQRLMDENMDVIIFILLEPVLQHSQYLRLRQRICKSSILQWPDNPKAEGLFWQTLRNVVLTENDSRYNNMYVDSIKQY
Summary of the method: as §1

Row | SMILES | pIC50 (human TLR9) | pIC50 (human TLR7) | pIC50 (human TLR8)
1 | COc1ccc(-c2nc3c(C)nc(-c4ccc(N5CCC6(CC5)CN(CC(C)C)C6)cc4)cc3n2C)cc1OC [Example 75, 2-(3,4-dimethoxyphenyl)-6-(4-(2-isobutyl-2,7-diazaspiro[3.5]nonan-7-yl)phenyl)-1,4-dimethyl-1H-imidazo[4,5-c]pyridine] | 7.01 | 6.05 | 4.55
2 | COc1ccc(-c2nc3c(C)nc(-c4ccc(N5CC6(C5)CN(C(C)C)C6)cc4)cc3n2C)cc1OC [Example 76, 2-(3,4-dimethoxyphenyl)-6-(4-(6-isopropyl-2,6-diazaspiro[3.3]heptan-2-yl)phenyl)-1,4-dimethyl-1H-imidazo[4,5-c]pyridine] | 7.64 | 5.74 | 5.44
3 | COc1ccc(-c2nc3c(C)nc(-c4ccc(N5CC6(C5)CN(C5CCC5)C6)cc4)cc3n2C)cc1OC [Example 77, 6-(4-(6-cyclobutyl-2,6-diazaspiro[3.3]heptan-2-yl)phenyl)-2-(3,4-dimethoxyphenyl)-1,4-dimethyl-1H-imidazo[4,5-c]pyridine] | 7.89 | 6.06 | 5.16
4 | Cc1nc(-c2ccc(N3CC4(C3)CN(C(C)C)C4)cc2)cc2c1nc(-c1ccc(S(C)(=O)=O)cc1)n2C [Example 78, 6-(4-(6-isopropyl-2,6-diazaspiro[3.3]heptan-2-yl)phenyl)-1,4-dimethyl-2-(4-(methylsulfonyl)phenyl)-1H-imidazo[4,5-c]pyridine] | 6.89 | 5.11 | 5.20
5 | Cc1nc(-c2ccc(N3CC4(C3)CN(C3CCC3)C4)cc2)cc2c1nc(-c1ccc(S(C)(=O)=O)cc1)n2C [Example 79, 6-(4-(6-cyclobutyl-2,6-diazaspiro[3.3]heptan-2-yl)phenyl)-1,4-dimethyl-2-(4-(methylsulfonyl)phenyl)-1H-imidazo[4,5-c]pyridine] | 6.89 | 5.96 | 5.43
6 | COc1ccc(-c2nc3c(C)nc(-c4ccc(N5CCC6(CC5)CN(C5CCC5)C6)cc4)cc3n2C)cc1OC [Example 80, 6-(4-(2-cyclobutyl-2,7-diazaspiro[3.5]nonan-7-yl)phenyl)-2-(3,4-dimethoxyphenyl)-1,4-dimethyl-1H-imidazo[4,5-c]pyridine] | 7.21 | 6.23 | 4.82
7 | COc1ccc(-c2nc3cnc(-c4ccc(N5C[C@@H]6CN(C(C)C)C[C@@H]6C5)cc4)cc3n2C2CC2)cc1OC [Example 81, 1-cyclopropyl-2-(3,4-dimethoxyphenyl)-6-(4-((3aR,6aS)-5-isopropylhexahydropyrrolo[3,4-c]pyrrol-2(1H)-yl)phenyl)-1H-imidazo[4,5-c]pyridine] | 6.92 | 5.52 | 5.48
8 | COc1ccc(-c2nc3cnc(-c4ccc(N5C[C@H]6CN(CC(C)C)C[C@H]6C5)cc4)cc3n2C2CC2)cc1OC [Example 82, 1-cyclopropyl-2-(3,4-dimethoxyphenyl)-6-(4-((3aR,6aS)-5-isobutylhexahydropyrrolo[3,4-c]pyrrol-2(1H)-yl)phenyl)-1H-imidazo[4,5-c]pyridine] | 6.66 | 5.42 | 5.38
9 | COc1ccc(-c2nc3cnc(-c4ccc(N5CCC6(CC5)CN(C(C)C)C6)cc4)cc3n2C2CC2)cc1OC [Example 83, 1-cyclopropyl-2-(3,4-dimethoxyphenyl)-6-(4-(2-isopropyl-2,7-diazaspiro[3.5]nonan-7-yl)phenyl)-1H-imidazo[4,5-c]pyridine] | 6.47 | 5.74 | 4.92
10 | COc1ccc(-c2nc3cnc(-c4ccc(N5CC6(C5)CN(C(C)C)C6)cc4)cc3n2C2CC2)cc1OC [Example 84, 1-cyclopropyl-2-(3,4-dimethoxyphenyl)-6-(4-(6-isopropyl-2,6-diazaspiro[3.3]heptan-2-yl)phenyl)-1H-imidazo[4,5-c]pyridine] | 6.74 | 5.36 | 5.66
11 | COc1ccc(-c2nc3cnc(-c4ccc(N5CC6(CN(CC(C)C)C6)C5)cc4)cc3n2C2CC2)cc1OC [Example 85, 1-cyclopropyl-2-(3,4-dimethoxyphenyl)-6-(4-(6-isobutyl-2,6-diazaspiro[3.3]heptan-2-yl)phenyl)-1H-imidazo[4,5-c]pyridine] | 6.77 | 5.49 | 5.60
12 | CC(C)CN1CC2(CCN(c3ccc(-c4cc5c(cn4)nc(-c4ccc(S(C)(=O)=O)cc4)n5C4CC4)cc3)CC2)C1 [Example 86, 1-cyclopropyl-6-(4-(2-isobutyl-2,7-diazaspiro[3.5]nonan-7-yl)phenyl)-2-(4-(methylsulfonyl)phenyl)-1H-imidazo[4,5-c]pyridine] | 6.57 | 5.17 | 5.52
